# Assay results reported in patent US20240261443A1, “COMPOUNDS AND COMPOSITIONS USEFUL AS RADIOTRACERS FOR IMAGING OF REACTIVE OXIDATIVE SPECIES” (Wake Forest University Health Sciences, priority 2019, published 2024).
# Assays:
# [1] = system: SCC-61 and rSCC-61 cell lines; assay: MitoSOX fluorescence ROS assay, with or without SOD blocker; format: cell-based, human
# Protocol: As a first-line tool to screen KS1 and KS2: SCC-61 has higher intracellular ROS than rSCC-61. MitoSOX is a mitochondrion-targeted dihydroethidium based derivative that primarily detects ROS (superoxide anion) produced within mitochondria. Mitosox assays without any ligands were used as controls. The two cell lines were treated with KS1, KS2 and ascorbate (10.0 μM) and incubated for an hour. MitoSOX (1.0 μM) in phenol red-free DMEM/F12 media was added and incubated for an additional 10 min. The cells were then washed with PBS and imaged in the same media.
# In addition to testing KS1 with the MitoSOX assay, we compared our results with no ligand controls and ascorbate as a reference standard. The two cell lines were treated with KS1 and ascorbate (10.0 μM) and incubated for an hour. MitoSOX (1.0 μM) in phenol red-free DMEM/F12 media was added and incubated for an additional 10 min. The cells were then washed with PBS and imaged in the same media. Ligand specificity is commonly determined by pretreating the cells with high concentrations of blockers. Superoxide dismutase (SOD), an enzyme that selectively suppresses accumulation of ROS-superoxide peroxide anions, was added as blocker (1.0 mM) 60 min before the treatment of KS1 (Bielski et al., Chemistry of ascorbic acid radicals. in Ascorbic Acid: Chemistry, Metabolism, and Uses. Chapter. 1982; 4:81-100). Fluorescence was subsequently measured and its intensity was quantified in f.u (fluorescence units).
# Ligand specificity is commonly determined by pretreating the cells with high concentrations of blockers. We used superoxide dismutase (SOD), an enzyme that selectively suppresses accumulation of ROS-superoxide peroxide anions (Bielski et al., Chemistry of ascorbic acid radicals. in Ascorbic Acid: Chemistry, Metabolism, and Uses. Chapter 1982, 4, 81-100). The same MitoSOX assay with KS1 and KS2 (10 μM) was performed by pretreating the SCC-61 cells with SOD (1.0 mM) for 60 min.
# SCC-61 cell line (HNSCC) = assay: MTT cytotoxicity IC50 assay, SCC-61; format: cell-based, human; settings: SCC-61, MTT
# Protocol: (§1) The cells were seeded at density 5×10^3 cells/well. After 24 h pre-incubation period, cells were treated with 0.01 mM to 2.0 mM of freshly prepared KS1 and KS2 along with ascorbate (n=3) for 48 h. 0.2% of DMSO served as vehicle control. After 48 h, the solutions were removed from all plates and MTT assays performed following the published protocols. IC50 values are presented as mean±SD from at least three independent experiments.
# (§2) There is growing evidence for a therapeutic role of ascorbate against several cancers (Creagan et al., Failure of High-Dose Vitamin C (Ascorbic Acid) Therapy to Benefit Patients with Advanced Cancer. New England Journal of Medicine 1979, 301 (13), 687-690; Chen et al., Pharmacologic ascorbic acid concentrations selectively kill cancer cells: action as a pro-drug to deliver hydrogen peroxide to tissues. Proceedings of the National Academy of Sciences of the United States of America 2005, 102 (38), 13604-13609; Prasad et al., High Doses of Multiple Antioxidant Vitamins: Essential Ingredients in Improving the Efficacy of Standard Cancer Therapy. Journal of the American College of Nutrition 1999, 18 (1), 13-25). Pharmacologic doses of ascorbate (oral and/or intravenous) could increase the effectiveness of cancer chemotherapy in many solid cancer therapies (López-Lizaro, Dual role of hydrogen peroxide in cancer: Possible relevance to cancer chemoprevention and therapy. Cancer Letters 2007, 252 (1), 1-8; Li et al., New Developments and Novel Therapeutic Perspectives for Vitamin C. The Journal of Nutrition 2007, 137 (10), 2171-2184; Klimant et al., Intravenous vitamin C in the supportive care of cancer patients: a review and rational approach. Current Oncology 2018, 25 (2), 139-148. The primary objective of this experiment was to determine the cytotoxic effects of KS1 at pharmacological concentrations. Cancer cell lines were selected based on their high ROS implications. […] These cell lines have been studied extensively with ascorbic acid treatments (Schoenfeld et al., O(2)(·−) and H(2)O(2)-Mediated Disruption of Fe Metabolism Causes the Differential Susceptibility of NSCLC and GBM Cancer Cells to Pharmacological Ascorbate. Cancer Cell 2017, 31 (4), 487-500.e8; Chen et al., Modulators of Redox Metabolism in Head and Neck Cancer. Antioxidants & Redox Signaling 2017, 29 (16), 1660-1690; Khandrika et al., Oxidative stress in prostate cancer. Cancer Lett 2009, 282 (2), 125-136.
# PC3 cell line = assay: MTT cytotoxicity IC50 assay, PC3; format: cell-based, human
# Protocol: as §1, §2
# Ex vivo serum stability = format: in vitro ADME; settings: human serum, 37° C., after 120 min of tracer synthesis
# Protocol: The ex vivo serum stability of [^18F]KS1 and [^18F]KS2 were analyzed in human serum samples, following previously published methods (Sai et al., Peptide-based PET imaging of the tumor restricted IL13RA2 biomarker. Oncotarget 2017, 5; Sattiraju et al., IL13RA2 targeted alpha particle therapy against glioblastoma. Journal of Nuclear Medicine 2016, 57 (supplement 2), 634; Wang et al., Evaluation of F-18-labeled amino acid derivatives and [18F]FDG as PET probes in a brain tumor-bearing animal model. Nuclear Medicine and Biology 2005, 32 (4), 367-375). Briefly, radiotracer was added to the human serum sample, and incubated at 37° C. Radioactive serum mixture was injected into the QC-HPLC system at 5 min, 30 min, 1 h, 1.5 h, 2 h, 2.5 h, and 3 h post radiotracer synthesis. Radiolysis through defluorination and/or oxidation of the radiotracers (if any) can be seen as new radiochemical peaks at different retention times (Rt) than the original product peak (Jin et al., A promising F-18 labeled PET radiotracer (-)-[18F]VAT for assessing the VAChT in vivo. Journal of Nuclear Medicine 2015, 56 (supplement 3); Koglin et al., [F-18]BAY 85-8050: A novel tumor specific probe for PET imaging-Preclinical results. Journal of Nuclear Medicine 2010, 51 (supplement 2), 1535; […] et al., Imaging COX-2 expression in cancer using PET/SPECT radioligands: current status and future directions. […]
# [2] = system: SCC-61 and PC3 cell lines; assay: DCFDA intracellular ROS detection assay; format: cell-based, human; settings: 2 mM, 7 h, compared to 100 μM
# Text: For this, we used dichlorofluorescin diacetate (DCFDA) intracellular ROS detection assay kit and followed manufacture recommended protocol (ZHELEV et al., Docosahexaenoic Acid Sensitizes Leukemia Lymphocytes to Barasertib and Everolimus by ROS-dependent Mechanism Without Affecting the Level of ROS and Viability of Normal Lymphocytes. Anticancer Research 2016, 36 (4), 1673-1682). We studied two patient-derived tumor cell lines: SCC-61, […], and PC3, prostate cancer cell line. The maximum allowed mass for a typical clinical PET radiotracer is <100 μM (Schwarz et al., Radiochemistry and radiopharmacology. LIC-Nuclear Medicine and PET/CT: Technology and Techniques 2016, 11, 77), so we chose 10-100 μM as our concentration range for tracer-level assays. The lowest reported pharmacologic dose for ascorbate is 2.0 mM (Levine et al., Vitamin C: a concentration-function approach yields pharmacology and therapeutic discoveries. Adv Nutr 2011, 2 (2), 78-88), so we chose this dose for our pharmacological assays. We chose the ligand incubation times based on the maximum tracer uptake time (˜2 h) for a typical [^18F]-based PET radiotracer injection (Schlyer, PET tracers and radiochemistry. ANNALS-ACADEMY OF MEDICINE SINGAPORE 2004, 33 (2), 146-154).
# Pharmacologic doses of ascorbate generates ROS, including H2O2 and trace amounts of labile iron extracellularly and/or intracellularly (Nauman et al., Systematic Review of Intravenous Ascorbate in Cancer Clinical Trials. Antioxidants (Basel) 2018, 7 (7), 89). We performed the same DCFDA assay with KS1 and ascorbate at pharmacological doses of 2 mM for 7 h in both SCC-61 and PC3 cell lines. ROS production was analyzed and reported (FIG. 11) using the similar measurements as above. Ligand specificity is commonly determined by pretreating the cells with high concentrations of blockers. We used superoxide dismutase (SOD), an enzyme that selectively suppresses accumulation of superoxide peroxide anions (Bielski et al., Chemistry of ascorbic acid radicals. in Ascorbic Acid: Chemistry, Metabolism, and Uses. Chapter 1982, 4, 81-100).
# SCC-61 cells = settings: cited from earlier work
smiles,measurement,setting,value
O=C1O/C(=C/Cc2ccc(OCCF)cc2)C(O)=C1O [KS2],higher selectivity between the two cell lines compared to ascorbate selectivity,"[1]; Example 4, SCC-61 vs rSCC-61, MitoSOX fluorescence",~10 fold
same,decrease of fluorescent uptake by SOD pretreatment,"[1]; SCC-61 cells, SOD (1.0 mM) for 60 min",~30%
same,IC50,"SCC-61 cell line (HNSCC); Example 7, 48 h",166 µM
same,IC50,"PC3 cell line; Example 7, 48 h",251 µM
O=C1O/C(=C/Cc2ccc(OCC[18F])cc2)C(O)=C1O [[^18F]KS2],intact in serum,Ex vivo serum stability,~80%
"O=C1O[C@H]([C@@H](O)CO)C(O)=C1O [ascorbate, ascorbic acid, reference compound]",MitoSOX fluorescence in SCC-61 compared to rSCC-61 cells,"[1]; 10.0 μM, 1 h incubation",higher fluorescence
same,IC50,"SCC-61 cell line (HNSCC); Homo sapiens, Example 7, 48 h",815 µM
same,IC50,"SCC-61 cell line (HNSCC); Homo sapiens, Example 13",1380 µM
same,IC50,"PC3 cell line; Homo sapiens, PC-3, Example 7, 48 h",1120 µM
same,IC50,"PC3 cell line; Homo sapiens, PC-3, Example 13",1410 µM
same,fluorescence intensity (ROS generation) at pharmacological dose,[2],"also increased, but not as with KS1"
C#Cc1cccc(Nc2ncnc3cc(OCCOC)c(OCCOC)cc23)c1 [erlotinib],IC50,SCC-61 cells,> 50 µM
